Assay results as given in patent publication US9376391B2, “Difluoromethyl-nicotinic-tetrahydronaphthyl carboxamides as fungicides” (BAYER CROPSCIENCE AKTIENGESELLSCHAFT, priority 2012, dated 2016).

Legend:
Venturia inaequalis = experiment: Venturia test (apples)/preventive; type: in vivo; settings: 100 ppm of active ingredient, evaluated 10 days after inoculation
Protocol: Venturia Test (Apples)/Preventive
(§1) To produce a suitable preparation of active compound, 1 part by weight of active compound is mixed with the stated amounts of solvent and emulsifier, and the concentrate is diluted with water to the desired concentration.
(§2) To test for preventive activity, young plants are sprayed with the preparation of active compound at the stated rate of application. After the spray coating has dried on, the plants are inoculated with an aqueous conidia suspension of the causal agent of apple scab (Venturia inaequalis) and then remain for 1 day in an incubation cabinet at approximately 20° C. and a relative atmospheric humidity of 100%.
The plants are then placed in a greenhouse at approximately 21° C. and a relative atmospheric humidity of approximately 90%.
The test is evaluated 10 days after the inoculation. 0% means an efficacy which corresponds to that of the untreated control, while an efficacy of 100% means that no disease is observed.

Phakopsora pachyrhizi = experiment: Phakopsora test (soybeans)/preventive; type: in vivo; settings: 100 ppm of active ingredient, evaluated 7 days after inoculation
Protocol: Phakopsora Test (Soybeans)/Preventive
as §1
as §2, with “spore” for “conidia”, “soybean rust (Phakopsora pachyrhizi)” for “apple scab (Venturia inaequalis)”, “stay” for “then remain”, “24 h without light” for “1 day”, “24°” for “20°”, “95%.” for “100%.”
The plants remain in the incubation cabinet at approximately 24° C. and a relative atmospheric humidity of approximately 80% and a day/night interval of 12 h.
The test is evaluated 7 days after the inoculation. 0% means an efficacy which corresponds to that of the untreated control, while an efficacy of 100% means that no disease is observed.

For `CC1CC(C)(C)c2cccc(NC(=O)c3cccnc3C(F)F)c21` (centres unmarked) [Example 1], the Eff. % (Venturia inaequalis) was 100% and the Eff. % (Phakopsora pachyrhizi) was 99%.
